Assays:
[1] = Liquid; for viscosity: 101 kPa; for mass density: 101.33 kPa, Pycnometric method
[2] = xn = mol fraction of the nth substance listed; settings: 101 kPa, Liquid

CCOCCO [2-ethoxyethan-1-ol]
[1]
Settings | mass density [kg/m3] | viscosity [mPa·s]
303.15 K | 921.19 | 1.654
308.15 K | 916.43 | 1.482
313.15 K | 911.58 | 1.306
318.15 K | 907.76 | 1.231
323.15 K | 903.45 | 1.116

CCOCCO [2-ethoxyethan-1-ol] + NC=O
viscosity [mPa·s], [2]
Settings | x2 = 0 | x2 = 0.0975 | x2 = 0.2009 | x2 = 0.2984 | x2 = 0.4047 | x2 = 0.5054 | x2 = 0.6055 | x2 = 0.7092 | x2 = 0.8063 | x2 = 0.9074
303.15 K | 1.654 | 1.996 | 2.306 | 2.58 | 2.873 | 3.162 | 3.409 | 3.509 | 3.495 | 3.306
308.15 K | 1.482 | 1.79 | 2.017 | 2.24 | 2.49 | 2.735 | 2.968 | 3.043 | 3.007 | 2.867
313.15 K | 1.306 | 1.564 | 1.786 | 1.986 | 2.221 | 2.466 | 2.659 | 2.718 | 2.692 | 2.583
318.15 K | 1.231 | 1.437 | 1.599 | 1.751 | 1.957 | 2.154 | 2.298 | 2.363 | 2.353 | 2.202
323.15 K | 1.116 | 1.281 | 1.415 | 1.533 | 1.709 | 1.891 | 2.041 | 2.1 | 2.094 | 1.954

COCCO [2-methoxyethan-1-ol]
[1]
Settings | mass density [kg/m3] | viscosity [mPa·s]
303.15 K | 955.72 | 1.421
308.15 K | 951.11 | 1.249
313.15 K | 946.27 | 1.173
318.15 K | 941.64 | 1.079
323.15 K | 936.88 | 0.9347

COCCO [2-methoxyethan-1-ol] + NC=O
[2], x2 = 0
Settings | viscosity [mPa·s]
303.15 K | 1.421
308.15 K | 1.249
313.15 K | 1.173
318.15 K | 1.079
323.15 K | 0.9347

NC=O [formamide]
[1]
Settings | mass density [kg/m3] | viscosity [mPa·s]
303.15 K | 1124.57 | 2.877
308.15 K | 1120.19 | 2.544
313.15 K | 1115.22 | 2.356
318.15 K | 1110.95 | 2.061
323.15 K | 1105.47 | 1.835

NC=O [formamide] + CCOCCO
[2], x1 = 1
Settings | viscosity [mPa·s]
303.15 K | 2.877
308.15 K | 2.544
313.15 K | 2.356
318.15 K | 2.061
323.15 K | 1.835

NC=O [formamide] + COCCO
viscosity [mPa·s], [2]
Settings | x1 = 0.1785 | x1 = 0.2723 | x1 = 0.3849 | x1 = 0.4862 | x1 = 0.5726 | x1 = 0.6651 | x1 = 0.7492 | x1 = 0.8363 | x1 = 0.9138 | x1 = 1
303.15 K | 1.795 | 1.993 | 2.237 | 2.47 | 2.665 | 2.849 | 2.927 | 2.968 | 2.965 | 2.877
308.15 K | 1.573 | 1.749 | 1.966 | 2.158 | 2.322 | 2.504 | 2.593 | 2.614 | 2.609 | 2.544
313.15 K | 1.453 | 1.623 | 1.813 | 1.988 | 2.131 | 2.264 | 2.323 | 2.361 | 2.36 | 2.356
318.15 K | 1.313 | 1.46 | 1.626 | 1.769 | 1.885 | 1.988 | 2.046 | 2.07 | 2.057 | 2.061
323.15 K | 1.129 | 1.27 | 1.421 | 1.566 | 1.661 | 1.75 | 1.806 | 1.842 | 1.83 | 1.835

Source: the NIST ThermoML archive (doi:10.1016/j.tca.2012.03.001)
